Data set [1] relates to porcine pepsin (P7125, Sigma Aldrich). Nature of the data set: SGF: sodium chloride, HCl, pH 1.2, with porcine pepsin (3.2 g/L). The note with it: 37 °C, up to 4 hours.
The subject of data set [2] is porcine pancreatin (P1625, Sigma Aldrich). Nature of the data set: SIF: monobasic potassium phosphate, pH 6.8, with porcine pancreatin (10 g/L). The following applies: 37 °C, up to 4 hours.
For data set [3], the target named is T1, human IL-23R endogenously expressed on DB cells (human, UniProt Q5VWK5 24-629).
T1 sequence (looked up): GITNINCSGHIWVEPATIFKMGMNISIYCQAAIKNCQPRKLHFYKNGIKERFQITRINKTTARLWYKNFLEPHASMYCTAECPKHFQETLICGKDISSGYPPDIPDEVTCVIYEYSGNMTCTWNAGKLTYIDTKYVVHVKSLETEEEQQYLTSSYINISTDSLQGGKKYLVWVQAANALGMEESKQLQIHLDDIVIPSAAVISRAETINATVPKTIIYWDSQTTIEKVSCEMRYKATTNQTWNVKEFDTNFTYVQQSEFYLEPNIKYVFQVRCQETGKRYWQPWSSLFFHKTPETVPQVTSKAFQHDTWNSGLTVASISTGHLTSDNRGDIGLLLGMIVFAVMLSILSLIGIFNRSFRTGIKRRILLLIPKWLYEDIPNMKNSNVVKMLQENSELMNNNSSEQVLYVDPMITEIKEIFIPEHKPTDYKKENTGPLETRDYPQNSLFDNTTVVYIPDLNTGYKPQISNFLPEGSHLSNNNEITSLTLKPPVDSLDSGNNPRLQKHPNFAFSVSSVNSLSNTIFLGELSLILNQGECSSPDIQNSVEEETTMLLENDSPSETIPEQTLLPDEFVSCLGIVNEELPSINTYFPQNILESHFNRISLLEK
Nature of the data set: cell-based or functional assay.

For data set [4], the target named is T2, Nluc-IL23R fusion protein (human, UniProt Q5VWK5 22-629).
T2 construct: range 22-629; expressed with a secretion signal in HEK293 cells; used as crude membrane preparation; also called hIL-23R; human IL-23R; not shown: Nanoluc protein from the expression plasmid N1371 (Promega), N-terminal of IL-23R
T2 sequence (looked up): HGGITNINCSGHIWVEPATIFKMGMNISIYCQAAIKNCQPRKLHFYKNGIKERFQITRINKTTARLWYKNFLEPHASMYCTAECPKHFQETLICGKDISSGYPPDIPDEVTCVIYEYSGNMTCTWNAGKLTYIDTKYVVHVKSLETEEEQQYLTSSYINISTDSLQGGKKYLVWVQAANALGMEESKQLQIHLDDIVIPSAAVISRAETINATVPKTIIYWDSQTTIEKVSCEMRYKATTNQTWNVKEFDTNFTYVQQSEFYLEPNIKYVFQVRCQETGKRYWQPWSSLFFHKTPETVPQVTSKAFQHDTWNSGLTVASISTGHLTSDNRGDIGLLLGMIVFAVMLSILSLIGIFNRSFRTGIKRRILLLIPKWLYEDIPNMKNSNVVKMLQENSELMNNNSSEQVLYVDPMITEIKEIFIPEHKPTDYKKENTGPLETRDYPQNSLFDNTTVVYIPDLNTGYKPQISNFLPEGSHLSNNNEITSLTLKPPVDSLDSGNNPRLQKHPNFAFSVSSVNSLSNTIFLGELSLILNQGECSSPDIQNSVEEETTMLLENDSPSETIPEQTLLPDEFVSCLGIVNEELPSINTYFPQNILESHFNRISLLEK
Nature of the data set: BRET competition vs TAMRA-labelled peptide, Nluc-IL23R membranes. For orientation: Bioluminescence resonance energy transfer reports proximity on the nanometre scale.

This note sets out measurements from EP4471049A1 (Zealand Pharma A/S, priority 2023, dated 2024).

Bridges are numbered along the chain shown (N, C = ends).

H-EC(4a)WLC(5a)YYRNC(5a)NC(4a)M-[NH2] gave a not cleaved in data set [1] of 99% remaining after 4 h. Molecule H-GC(1a)TC(2a)WEC(2a)WWLC(1a)S-[NH2] came in with a not cleaved in data set [1] of 94% remaining after 4 h. On to “[4-Aminomethyl-phenylacetyl](1c)*AE(2c)WQ[Dab](2c)[7-AzaTrp][2-Nal][Aib]E(1c)[Dab][3-(3-Pyridyl)-Ala]”, for which the not cleaved is on record as 98% remaining after 4 h in data set [1] and 92% remaining after 4 h in data set [2]. In turn, “[4-Aminomethyl-phenylacetyl](1c)*AE(2c)WQ[Dab](2c)[7-F-Trp][2-Nal][Aib]E(1c)[Dab][3-(3-Pyridyl)-Ala]” had a not cleaved in data set [2] of 92% remaining after 4 h. On to “[4-Aminomethyl-phenylacetyl](1c)*AE(2c)WQ[Dab](2c)[Y(2-aminoethoxy)][2-Nal][2-Me-Leu]E(1c)[Dab][3-(3-Pyridyl)-Ala]-[NHMe]”, for which the not cleaved in data set [1] came out at 103% remaining after 4 h; in data set [2], 90% remaining after 4 h.

Regarding “[4-Aminomethyl-phenylacetyl](1c)*AE(2c)WQ[Dab](2c)[hPhe][2-Nal][Aib]E(1c)[Dab][3-(3-Pyridyl)-Ala]”, the not cleaved in data set [1] is 102% remaining after 4 h; in data set [2], 95% remaining after 4 h. On to “[4-Aminomethyl-phenylacetyl](1c)*FE(2c)WQ[Dab](2c)[Y(2-aminoethoxy)][2-Nal][2-Me-Leu]E(1c)[Dab][3-(3-Pyridyl)-Ala]”, for which the not cleaved in data set [1] is 101% remaining after 4 h. The same measure, in the same setting: the same measure for “[4-Aminomethyl-phenylacetyl](1c)*SE(2c)WQ[Dab](2c)[Y(2-aminoethoxy)][2-Nal][2-Me-Leu]E(1c)H[3-(3-Pyridyl)-Ala]”: 95% remaining after 4 h; for “[4-Aminomethyl-phenylacetyl](1c)*SE(2c)WQ[Dab](2c)[Y(2-aminoethoxy)][2-Nal][2-Me-Leu]E(1c)Q[3-(3-Pyridyl)-Ala]”: 93% remaining after 4 h; for “[4-Aminomethyl-phenylacetyl](1c)*SE(2c)WQ[Dab](2c)[Y(2-aminoethoxy)][2-Nal][2-Me-Leu]E(1c)S[3-(3-Pyridyl)-Ala]”: 99% remaining after 4 h. Same read-out and setting: the same measure for “[4-Aminomethyl-phenylacetyl](1c)*SE(2c)WQ[Dab](2c)[Y(2-aminoethoxy)][2-Nal][2-Me-Leu]E(1c)[2-Me-Ser][3-(3-Pyridyl)-Ala]”: 96% remaining after 4 h; for “[4-Aminomethyl-phenylacetyl](1c)*SE(2c)WQ[Dab](2c)[Y(2-aminoethoxy)][2-Nal][2-Me-Leu]E(1c)[Dab]-[NH-(4-(pyridin-3-yl)butanyl)]”: 108% remaining after 4 h; for “[4-Aminomethyl-phenylacetyl](1c)*SE(2c)WQ[Dab](2c)[Y(2-aminoethoxy)][2-Nal][2-Me-Leu]E(1c)[Dab]H[3-(3-Pyridyl)-Ala]-[NH2]”: 93% remaining after 4 h. With “[4-Aminomethyl-phenylacetyl](1c)*SE(2c)WQ[Dab](2c)[Y(2-aminoethoxy)][2-Nal][2-Me-Leu]E(1c)[Dab][2-Me-3-(3-Pyridyl)-Ala]-[NH2]”, the values for the not cleaved in data set [1] and in data set [2] were 104% remaining after 4 h and 109% remaining after 4 h, respectively.

For “[4-Aminomethyl-phenylacetyl](1c)*SE(2c)WQ[Dab](2c)[Y(2-aminoethoxy)][2-Nal][2-Me-Leu]E(1c)[Dab][3-(3-Pyridyl)-Ala]-[NH2]”, the not cleaved in data set [1] came to 90% remaining after 4 h. Moreover, the cleaved bond entry in data set [2] is on record as “Dab12-3Pal13, major”. In data set [2], “[4-Aminomethyl-phenylacetyl](1c)*SE(2c)WQ[Dab](2c)[Y(2-aminoethoxy)][2-Nal][2-Me-Leu]E(1c)[Dab][3-(3-Pyridyl)-Ala]-[NHMe]” showed a not cleaved of 105% remaining after 4 h. Turning to “[4-Aminomethyl-phenylacetyl](1c)*SE(2c)WQ[Dab](2c)[Y(2-aminoethoxy)][2-Nal][2-Me-Leu]E(1c)[Dab][3-(3-Pyridyl)-Ala][Sar]-[NH2]”, the not cleaved in data set [1] was found to be 95% remaining after 4 h; in data set [2], 105% remaining after 4 h. For “[4-Aminomethyl-phenylacetyl](1c)*SE(2c)WQ[Dab](2c)[Y(2-aminoethoxy)][2-Nal][2-Me-Leu]E(1c)[Dab][3-(3-Pyridyl)-Ala][beta-hLeu]-[NH2]”, in that order: 97% remaining after 4 h and 102% remaining after 4 h.

On to “[4-Aminomethyl-phenylacetyl](1c)*SE(2c)WQ[Dab](2c)[Y(2-aminoethoxy)][2-Nal][2-Me-Leu]E(1c)[Dab][N-Me-3-(3-Pyridyl)-Ala]-[NH2]”, for which the not cleaved in data set [1] was 103% remaining after 4 h. In the case of “[4-Aminomethyl-phenylacetyl](1c)*SE(2c)WQ[Dab](2c)[Y(2-aminoethoxy)][2-Nal][2-Me-Leu]E(1c)[Dab][{d}3-(3-Pyridyl)-Ala]-[NH2]”, in data set [1], the not cleaved was determined as 105% remaining after 4 h.

The molecule “[4-Aminomethyl-phenylacetyl](1c)*SE(2c)WQ[Dab](2c)[Y(2-aminoethoxy)][2-Nal][2-Me-Leu]E(1c)[Nle][3-(3-Pyridyl)-Ala]” displayed a not cleaved in data set [1] of 90% remaining after 4 h. In data set [1], “[4-Aminomethyl-phenylacetyl](1c)*SE(2c)WQ[Dab](2c)[Y(2-aminoethoxy)][2-Nal][2-Me-Leu]E(1c)[Ser(OMe)][3-(3-Pyridyl)-Ala]” displayed a not cleaved of 102% remaining after 4 h. Same read-out and setting: the same measure for “[4-Aminomethyl-phenylacetyl](1c)*SE(2c)WQ[Dab](2c)[Y(2-aminoethoxy)][2-Nal][2-Me-Leu]E(1c)[hSer][3-(3-Pyridyl)-Ala]”: 103% remaining after 4 h. On the same count and under the same terms, the value for “[4-Aminomethyl-phenylacetyl](1c)*SE(2c)WQ[Dab](2c)[Y(2-aminoethoxy)][2-Nal][2-Me-Leu]E(1c)[{d}S][3-(3-Pyridyl)-Ala]” was 91% remaining after 4 h. In data set [2], “[4-Aminomethyl-phenylacetyl](1c)*SE(2c)W[Dab(Ac)][Dab](2c)[Y(2-aminoethoxy)][2-Nal][2-Me-Leu]E(1c)[Dab][3-(3-Pyridyl)-Ala]” yielded a not cleaved of 91% remaining after 4 h. “[4-Aminomethyl-phenylacetyl](1c)*SE(2c)W[K(Ac)][Dab](2c)[Y(2-aminoethoxy)][2-Nal][2-Me-Leu]E(1c)[Dab][3-(3-Pyridyl)-Ala]”: the not cleaved in data set [1] was found to be 90% remaining after 4 h. Regarding “[4-Aminomethyl-phenylacetyl](1c)*SE(2c)W[Q(2Me)][Dab](2c)[Y(2-aminoethoxy)][2-Nal][2-Me-Leu]E(1c)[Dab][3-(3-Pyridyl)-Ala]”, the not cleaved in data set [2] is listed as 94% remaining after 4 h. The molecule “[4-Aminomethyl-phenylacetyl](1c)*SE(2c)W[Q(pyrrolidin)][Dab](2c)[Y(2-aminoethoxy)][2-Nal][2-Me-Leu]E(1c)[Dab][3-(3-Pyridyl)-Ala]” displayed a not cleaved in data set [1] of 96% remaining after 4 h. The same measure, in the same setting: the same measure for “[Ac]-[Abu](16i)QTWQC(16i)[Y(2-aminoethoxy)]W[2-Me-Lys]ENG-[NH2]”: 100% remaining after 4 h.

B1: I4 (isomer 3) (peptide)
peptide: H-ECWLCYYRNCNCM-NH2
modifications: linker 5-10, 2-12 via 1,3‑dithio‑propan‑2‑one
notes: compound from Heinis et al., 2020, synthesised for comparison
Take B1: the “hIL-23 (pSTAT3) antagonist % inhibition” value in data set [3] worked out at 23%. Moreover, in data set [4], the “% displacement (hIL-23R binding)” value turned out to be 84%.
